A word on the EC50: it is the concentration needed to bring the measured effect to its halfway point. A word on the CC50: it is the concentration giving 50% cytotoxicity. Lower therefore signals greater toxicity to the cells.

Bounds are passed on as bounds.

This note sets out measurements from publication PMC7280082 (Acta Pharmaceutica Sinica. B, 2019).

One data set deals with WT HIV-1 (IIIB). The data set is described as follows: microbe, parasite or virus in culture. The data set is classed as cell-based. As to conditions: for EC50: Human immunodeficiency virus 1, IIIB, MT4, read-out: EC50 IIIB.
The subject of the next data set is HIV-2 strain (ROD). The data set is described as follows: Anti-HIV-2. As to conditions: for EC50: Human immunodeficiency virus 2, MT4, read-out: EC50 ROD. The data set is classed as cell-based.
Data set [1] has as its system HIV-1 L100I mutant strain. The data set is described as follows: microbe, parasite or virus in culture. The data set is classed as cell-based. Particulars: for EC50: Human immunodeficiency virus 1, MT4, read-out: EC50 L100I; for RF L100I: ratio of EC50 (resistant viral strain)/EC50 (wild-type viral strain).
The test system of data set [2] is HIV-1 K103N mutant strain. The data set is described as follows: microbe, parasite or virus in culture. As to conditions: for EC50: Human immunodeficiency virus 1, MT4, read-out: EC50 K103N; for RF K103N: ratio of EC50 (resistant viral strain)/EC50 (wild-type viral strain). The data set is classed as cell-based.
Data set [3] relates to HIV-1 Y181C mutant strain. The experiment in a line: microbe, parasite or virus in culture. The data set is classed as cell-based. As to conditions: for EC50: Human immunodeficiency virus 1, MT4, read-out: EC50 Y181C; for RF Y181C: ratio of EC50 (resistant viral strain)/EC50 (wild-type viral strain).
In data set [4] the test system is HIV-1 Y188L mutant strain. The experiment in a line: microbe, parasite or virus in culture. Particulars: for EC50: Human immunodeficiency virus 1, MT4, read-out: EC50 Y188L; for RF Y188L: ratio of EC50 (resistant viral strain)/EC50 (wild-type viral strain). The data set is classed as cell-based.
The subject of data set [5] is HIV-1 E138K mutant strain. The experiment in a line: microbe, parasite or virus in culture. The data set is classed as cell-based. Particulars: for EC50: Human immunodeficiency virus 1, MT4, read-out: EC50 E138K; for RF E138K: ratio of EC50 (resistant viral strain)/EC50 (wild-type viral strain).
In data set [6] the test system is HIV-1 F227L + V106A double-mutant strain. The data set is described as follows: microbe, parasite or virus in culture. The data set is classed as cell-based. As to conditions: for EC50: Human immunodeficiency virus 1, MT4, read-out: EC50 F227L + V106A; for RF F227L + V106A: ratio of EC50 (resistant viral strain)/EC50 (wild-type viral strain).
The test system of data set [7] is HIV-1 RES056 (K103N + Y181C) double-mutant strain. The data set is described as follows: microbe, parasite or virus in culture. Particulars: for EC50: Human immunodeficiency virus 1, MT4, read-out: EC50 RES056; for RF RES056: ratio of EC50 (resistant viral strain)/EC50 (wild-type viral strain). The data set is classed as cell-based.
Data set [8] can be described thus: Cytotoxicity in mock-infected MT-4 cell cultures, MTT method. As to conditions: human, mock-infected MT-4 cells. A general note: Formazan colour is commonly taken as a measure of viable cells.

With `Cc1cc(-c2ccsc2)cc(C)c1Oc1nc(NC2CCN(Cc3ccc(C(N)=O)cc3)CC2)nc2ccsc12` [Compound 18, 4-((4-((4-(2,6-Dimethyl-4-(thiophen-3-yl)phenoxy)thieno[3,2-d]pyrimidin-2-yl)amino)piperidin-1-yl)methyl)benzamide], the EC50 is 240 ± 94.3 nM in the data set with WT HIV-1 (IIIB); above 17000 nM in the data set with HIV-2 strain (ROD); 925 ± 286 nM in data set [1]; 171 ± 56.9 nM in data set [2]; 741 ± 154 nM in data set [3]; 628 ± 49.6 nM in data set [4]. Moreover, the concentration giving a half-maximal response (EC50) was determined as 739 ± 318 nM in [5], 854 ± 186 nM in data set [6] and 4520 ± 1450 nM in [7]. Besides, the “SI IIIB” value in the data set with WT HIV-1 (IIIB) (ratio of CC50/EC50) turned out to be 71. For the same compound, the “SI ROD” value in the data set with HIV-2 strain (ROD) (ratio of CC50/EC50) is reported as below 1. The “SI L100I” value in data set [1] (CC50/EC50) amounted to 18. Besides, in [1], the “RF L100I” value came out at 3.8. Moreover, the “SI K103N” value in [2] (CC50/EC50) amounted to 99. In data set [2], the “RF K103N” value is reported as 0.7. In addition, the “SI Y181C” value in data set [3] (CC50/EC50) is reported as 23. Further, the “RF Y181C” value in [3] came to 3.1. The “SI Y188L” value in [4] (CC50/EC50) was found to be 27. Further, in [4], the “RF Y188L” value was determined as 2.6. In addition, the “SI E138K” value in data set [5] (CC50/EC50) is 23. Moreover, the “RF E138K” value in data set [5] worked out at 3.1. The “SI F227L + V106A” value in [6] (CC50/EC50) was 20. The “RF F227L + V106A” value in data set [6] was 3.6. In [7] (CC50/EC50), the “SI RES056” value came out at 4. Further, the “RF RES056” value in data set [7] was found to be 18.8. Moreover, in data set [8], the CC50 at 5 days came to 17000 ± 12900 nM.

In the case of `Cc1ccnc2c1NC(=O)c1cccnc1N2C1CC1` [NVP, Nevirapine, reference compound], the EC50 in the data set on WT HIV-1 (IIIB) is 186 ± 59 nM; with HIV-2 strain (ROD), above 9510 nM; in data set [1], 1400 ± 828 nM; in data set [2], 7820 ± 556 nM; in data set [3] it was above 9510 nM; in data set [4], above 9510 nM. Also, the EC50 in [5] is 115 ± 24.5 nM; in [6] it was above 9510 nM; in [7] it was above 9510 nM. For the same compound, the “RF L100I” value in data set [1] stood at 7.5. Further, the “RF K103N” value in data set [2] is listed as 42. The “RF Y181C” value in data set [3] is “NA (>51.1)”. Further, in data set [4], the “RF Y188L” value is recorded as “NA (>51)”. Besides, the “RF E138K” value in data set [5] was determined as 0.6. Also, the “RF F227L + V106A” value in data set [6] was “NA (>51.1)”. The “RF RES056” value in data set [7] is recorded as “NA (>51.1)”. In addition, the CC50 at 5 days in data set [8] is above 9510 nM.

For `Cc1cc(C#N)cc(C)c1Oc1nc(Nc2ccc(C#N)cc2)nc(N)c1Br` [ETR, Etravirine, reference compound], the concentration for a half-maximal effect (EC50) with WT HIV-1 (IIIB) was 5.03 ± 1.68 nM; in the data set on HIV-2 strain (ROD), above 4590 nM; in data set [1], 6.35 ± 1.77 nM; in data set [2] it was 3.13 ± 0.42 nM; in data set [3] it was 12.2 ± 2.63 nM; in data set [4], 17.3 ± 5.53 nM. Besides, the EC50 in [5] is 8.07 ± 2.52 nM; in data set [6], 14.2 ± 5.14 nM; in data set [7] it was 42.5 ± 15.1 nM. In addition, the “RF L100I” value in data set [1] is 1.3. Moreover, the “RF K103N” value in [2] is recorded as 0.6. Further, the “RF Y181C” value in [3] came to 2.4. For the same compound, the “RF Y188L” value in [4] is 3.5. Also, the “RF E138K” value in data set [5] worked out at 1.6. The “RF F227L + V106A” value in data set [6] was 2.8. Also, the “RF RES056” value in data set [7] amounted to 8.4. Also, the CC50 at 5 days in data set [8] is above 4590 nM.

For the compound `O=C1Nc2ccc(Cl)cc2[C@@](C#CC2CC2)(C(F)(F)F)O1` [EFV, efavirenz, reference compound], the concentration giving a half-maximal response (EC50) was 5.25 ± 1.98 nM with WT HIV-1 (IIIB); above 5330 nM in the data set on HIV-2 strain (ROD); 46.5 ± 9.11 nM in data set [1]; 111 ± 35.4 nM in [2]; 6.33 ± 1.06 nM in [3]; 306 ± 53.9 nM in [4]. Also, the EC50 in data set [6] is 268 ± 48.7 nM. Further, in [8], the CC50 at 5 days is above 6330 nM.
